According to patent publication US6967205B1, “Compounds with antibacterial and antiparasitic properties” (New Pharma Research Sweden AB, priority 1999, dated 2005):
In brackets after ≈: the same amount, converted by molar mass.

Columns and labels:
Assay in all cases: M.I.C. by broth dilution method (NCCLS 1988), gram-positive bacteria
Assay type in all cases: cell-based
[1] = tested on: Staphylococcus (ATCC 6538); settings: ATCC6538, in vitro broth dilution, read-out: M.I.C. values Staph. (ATCC 6538)
Protocol: (§1) The antibacterial activity of the present compounds was investigated by in vitro evaluation of their M.I.C. (Minimum Inhibitory Concentration) values. The evaluation was conducted in complete accordance with the “Broth dilution method”, as outlined by the U.S. National Committee for Clinical Laboratory Standards “NCCLS 1988”.
(§2) Solutions of the present compounds were prepared by dissolving 0.01 g of a test compound in either 10% KOH (aq) or a 10% KOH/DMF mixture, after which sterile, distilled H2O was added up to a total volume of 10 ml, thereby yielding a test compound concentration of 1 000 μg/ml.
(§3) In this evaluation, the antibacterial activity of the present compounds and enrofloxacin as reference compound was tested against seven strains of gram-positive bacteria, namely Bacillus subtilus (ATCC 6633), Bacillus cereus, Streptococcus faecium, Micrococcus Luteus (ATCC 9341), Staph. aureus (ATCC 29737), Staph. epidermidis (ATCC 12228) and Staphylococcus (ATCC 6538).

[2] = tested on: Micrococcus Luteus (ATCC 9341); settings: ATCC9341, in vitro broth dilution, read-out: M.I.C. values Microc. Luteus
Protocol: as §1, §2, §3

[3] = tested on: Bacillus subtilus (ATCC 6633); settings: ATCC6633, in vitro broth dilution
Protocol: as §1, §2, §3

[4] = tested on: Staph. aureus (ATCC 29737); settings: Staphylococcus aureus, ATCC29737, in vitro broth dilution
Protocol: as §1, §2, §3

Streptococcus faecium = settings: Enterococcus faecium, in vitro broth dilution, read-out: M.I.C. values Streptoc. faecium
Protocol: as §1, §2, §3

[5] = tested on: Staph. epidermidis (ATCC 12228); settings: Staphylococcus epidermidis, ATCC12228, in vitro broth dilution
Protocol: as §1, §2, §3

Bacillus cereus = settings: in vitro broth dilution
Protocol: as §1, §2, §3

SMILES | MIC [1] | MIC [2] | MIC [3] | MIC [4] | MIC (Streptococcus faecium) | MIC [5] | MIC (Bacillus cereus)
Cc1ccc(S(=O)(=O)N2CCN(c3cc4c(cc3F)c(=O)c(C(=O)O)cn4C3CC3)CC2)cc1 [JA 2, 1-cyclopropyl-6-fluoro-7-{4-[(4-methylphenyl)sulfonyl]-1-piperazinyl}-4-oxo-1,4-dihydro-3-quinolinecarboxylic acid] | 0.03 µg/mL (≈ 0.0618 µM) | 0.5 µg/mL (≈ 1.03 µM) | 0.12 µg/mL (≈ 0.247 µM) | 0.12 µg/mL (≈ 0.247 µM) | 0.5 µg/mL (≈ 1.03 µM) | 0.06 µg/mL (≈ 0.124 µM) | 0.06 µg/mL (≈ 0.124 µM)
O=C(O)c1cn(C2CC2)c2cc(N3CCN(S(=O)(=O)Cc4ccccc4)CC3)c(F)cc2c1=O [JA 9, 7-[4-(benzylsulfonyl)-1-piperazinyl]-1-cyclopropyl-6-fluoro-4-oxo-1,4-dihydro-3-quinolinecarboxylic acid] | 0.06 µg/mL (≈ 0.124 µM) | 1 µg/mL (≈ 2.06 µM) | 0.25 µg/mL (≈ 0.515 µM) | ≥ 0.12 µg/mL | 1 µg/mL (≈ 2.06 µM) | 0.12 µg/mL (≈ 0.247 µM) | 0.25 µg/mL (≈ 0.515 µM)
CS(=O)(=O)N1CCN(c2cc3c(cc2F)c(=O)c(C(=O)O)cn3C2CC2)CC1 [JA 10, 1-cyclopropyl-6-fluoro-7-[4-(methylsulfonyl)-1-piperazinyl]-4-oxo-1,4-dihydro-3-quinolinecarboxylic acid] | 0.25 µg/mL (≈ 0.611 µM) | 2 µg/mL (≈ 4.88 µM) | 0.5 µg/mL (≈ 1.22 µM) | 0.25 µg/mL (≈ 0.611 µM) | 1 µg/mL (≈ 2.44 µM) | 0.25 µg/mL (≈ 0.611 µM) | 0.12 µg/mL (≈ 0.293 µM)
CCn1cc(C(=O)O)c(=O)c2cc(F)c(N3CCN(S(=O)(=O)c4ccc(OC)cc4)CC3)cc21 [JA 21, 1-ethyl-6-fluoro-7-{4-[(4-methoxyphenyl)sulfonyl]-1-piperazinyl}-4-oxo-1,4-dihydro-3-quinolinecarboxylic acid] | 0.06 µg/mL (≈ 0.123 µM) | 2 µg/mL (≈ 4.09 µM) | 0.25 µg/mL (≈ 0.511 µM) | 0.25 µg/mL (≈ 0.511 µM) | 0.5 µg/mL (≈ 1.02 µM) | 0.06 µg/mL (≈ 0.123 µM) | 0.01 µg/mL (≈ 0.0204 µM)
O=C(O)c1cn(C2CC2)c2cc(N3CCN(c4ccc(Br)cn4)CC3)c(F)cc2c1=O [JA 40, 7-[4-(5-bromo-2-pyridinyl)-1-piperazinyl]-1-cyclopropyl-6-fluoro-4-oxo-1,4-dihydro-3-quinolinecarboxylic acid] | 0.06 µg/mL (≈ 0.123 µM) | 2 µg/mL (≈ 4.1 µM) | 0.12 µg/mL (≈ 0.246 µM) | 0.25 µg/mL (≈ 0.513 µM) | 1 µg/mL (≈ 2.05 µM) | 0.12 µg/mL (≈ 0.246 µM) | 0.06 µg/mL (≈ 0.123 µM)
O=C(O)c1cn(C2CC2)c2cc(N3CCN(c4cccc(Cl)c4S)CC3)c(F)cc2c1=O [JA 41, 7-[4-(3-chloro-2-sulfanylphenyl)-1-piperazinyl]-1-cyclopropyl-6-fluoro-4-oxo-1,4-dihydro-3-quinolinecarboxylic acid] | 0.25 µg/mL (≈ 0.527 µM) | 2 µg/mL (≈ 4.22 µM) | 0.5 µg/mL (≈ 1.05 µM) | 0.25 µg/mL (≈ 0.527 µM) | 1 µg/mL (≈ 2.11 µM) | 0.25 µg/mL (≈ 0.527 µM) | 0.25 µg/mL (≈ 0.527 µM)
O=C(O)c1cn(C2CC2)c2cc(N3CCN(c4cnccn4)CC3)c(F)cc2c1=O [JA 46, 1-cyclopropyl-6-fluoro-4-oxo-7-[4-(2-pyrazinyl)-1-piperazinyl]-1,4-dihydro-3-quinolinecarboxylic acid] | 0.12 µg/mL (≈ 0.293 µM) | 1 µg/mL (≈ 2.44 µM) | 0.12 µg/mL (≈ 0.293 µM) | 0.12 µg/mL (≈ 0.293 µM) | 0.5 µg/mL (≈ 1.22 µM) | 0.12 µg/mL (≈ 0.293 µM) | 0.06 µg/mL (≈ 0.147 µM)
O=C(O)c1cn(C2CC2)c2cc(NC3CCC(C(=O)O)CC3)c(F)cc2c1=O (centres unmarked) [JA 69, 7-[(4-carboxycyclohexyl)amino]-1-cyclopropyl-6-fluoro-4-oxo-1,4-dihydro-3-quinolinecarboxylic acid] | 0.12 µg/mL (≈ 0.309 µM) | 2 µg/mL (≈ 5.15 µM) | 0.12 µg/mL (≈ 0.309 µM) | 0.12 µg/mL (≈ 0.309 µM) | 2 µg/mL (≈ 5.15 µM) | 0.12 µg/mL (≈ 0.309 µM) | 0.06 µg/mL (≈ 0.154 µM)
O=C(O)c1ccc(CNc2cc3c(cc2F)c(=O)c(C(=O)O)cn3C2CC2)cc1 [JA 70, 7-[(4-carboxybenzyl)amino]-1-cyclopropyl-6-fluoro-4-oxo-1,4-dihydro-3-quinolinecarboxylic acid] | 0.12 µg/mL (≈ 0.303 µM) | 1 µg/mL (≈ 2.52 µM) | 0.25 µg/mL (≈ 0.631 µM) | 0.12 µg/mL (≈ 0.303 µM) | 2 µg/mL (≈ 5.05 µM) | 0.25 µg/mL (≈ 0.631 µM) | 0.12 µg/mL (≈ 0.303 µM)
O=C(O)c1cn(C2CC2)c2cc(NCCN3CCCCC3)c(F)cc2c1=O [JA 76, 1-cyclopropyl-6-fluoro-4-oxo-7-{[2-(1-piperidinyl)ethyl]-amino}-1,4-dihydro-3-quinolinecarboxylic acid] | 0.06 µg/mL (≈ 0.161 µM) | 2 µg/mL (≈ 5.36 µM) | 0.12 µg/mL (≈ 0.321 µM) | 0.12 µg/mL (≈ 0.321 µM) | 1 µg/mL (≈ 2.68 µM) | 0.12 µg/mL (≈ 0.321 µM) | 0.12 µg/mL (≈ 0.321 µM)
CN(CCCN)CCCNc1cc2c(cc1F)c(=O)c(C(=O)O)cn2C1CC1 [JA 102, 7-({3-[(3-aminopropyl)(methyl)amino]propyl}amino)-1-cyclopropyl-6-fluoro-4-oxo-1,4-dihydro-3-quinolinecarboxylic acid] | 0.12 µg/mL (≈ 0.307 µM) | 2 µg/mL (≈ 5.12 µM) | 0.12 µg/mL (≈ 0.307 µM) | 0.06 µg/mL (≈ 0.154 µM) | 1 µg/mL (≈ 2.56 µM) | 0.12 µg/mL (≈ 0.307 µM) | 0.06 µg/mL (≈ 0.154 µM)
O=C(O)c1cn(C2CC2)c2cc(N(Cc3ccco3)C(=O)c3cccs3)c(F)cc2c1=O [JA 124, 1-cyclopropyl-6-fluoro-7[(2-furylmethyl)(2-thienylcarbonyl)amino]-4-oxo-1,4-dihydro-3-quinolinecarboxylic acid] | 0.12 µg/mL (≈ 0.265 µM) | 2 µg/mL (≈ 4.42 µM) | 0.12 µg/mL (≈ 0.265 µM) | 0.12 µg/mL (≈ 0.265 µM) | 1 µg/mL (≈ 2.21 µM) | 0.12 µg/mL (≈ 0.265 µM) | 0.12 µg/mL (≈ 0.265 µM)
O=C(O)c1cn(C2CC2)c2cc(N(CCN3CCCCC3)C(=O)c3cccs3)c(F)cc2c1=O [JA 128, 1-cyclopropyl-6-fluoro-4-oxo-7-[[2-(1-piperidinyl)ethyl]-(2-thienylcarbonyl)amino]-1,4-dihydro-3-quinolinecarboxylic acid] | 0.12 µg/mL (≈ 0.248 µM) | 2 µg/mL (≈ 4.14 µM) | 0.12 µg/mL (≈ 0.248 µM) | 0.12 µg/mL (≈ 0.248 µM) | 1 µg/mL (≈ 2.07 µM) | 0.06 µg/mL (≈ 0.124 µM) | 0.06 µg/mL (≈ 0.124 µM)
COc1ccc(S(=O)(=O)N(CC2CCCO2)c2cc3c(cc2F)c(=O)c(C(=O)O)cn3C2CC2)cc1 (centres unmarked) [JA 135, 1-cyclopropyl-6-fluoro-7-[[(4-methoxyphenyl)sulfonyl](tetrahydro-2-furanylmethyl)amino]-4-oxo-1,4-dihydro-3-quinolinecarboxylic acid] | 0.12 µg/mL (≈ 0.232 µM) | 2 µg/mL (≈ 3.87 µM) | 0.12 µg/mL (≈ 0.232 µM) | 0.12 µg/mL (≈ 0.232 µM) | 0.5 µg/mL (≈ 0.968 µM) | 0.12 µg/mL (≈ 0.232 µM) | 0.06 µg/mL (≈ 0.116 µM)
O=C(O)c1cn(C2CC2)c2cc(N(CC3CCCO3)S(=O)(=O)c3ccc4ccccc4c3)c(F)cc2c1=O (centres unmarked) [JA 136, 1-cyclopropyl-6-fluoro-7-[(2-naphthylsulfonyl)(tetrahydro-2-furanylmethyl)amino]-4-oxo-1,4-dihydro-3-quinolinecarboxylic acid] | 0.12 µg/mL (≈ 0.224 µM) | 2 µg/mL (≈ 3.73 µM) | 0.12 µg/mL (≈ 0.224 µM) | 0.12 µg/mL (≈ 0.224 µM) | 0.5 µg/mL (≈ 0.932 µM) | 0.12 µg/mL (≈ 0.224 µM) | 0.06 µg/mL (≈ 0.112 µM)
O=C(O)c1cn(C2CC2)c2cc(N(CC3CCCO3)S(=O)(=O)CCc3ccccc3)c(F)cc2c1=O (centres unmarked) [JA 137, 1-cyclopropyl-6-fluoro-4-oxo-7-[(phenethylsulfonyl)(tetrahydro-2-furanylmethyl)amino]-1,4-dihydro-3-quinolinecarboxylic acid] | 0.12 µg/mL (≈ 0.233 µM) | 2 µg/mL (≈ 3.89 µM) | 0.12 µg/mL (≈ 0.233 µM) | 0.5 µg/mL (≈ 0.972 µM) | 1 µg/mL (≈ 1.94 µM) | 0.25 µg/mL (≈ 0.486 µM) | 0.25 µg/mL (≈ 0.486 µM)
O=C(O)c1cn(C2CC2)c2cc(N(CC3CCCO3)S(=O)(=O)C(F)(F)F)c(F)cc2c1=O (centres unmarked) [JA 138, 1-cyclopropyl-6-fluoro-4-oxo-7-{(tetrahydro-2-furanylmethyl)[(trifluoromethyl)sulfonyl]amino}-1,4-dihydro-3-quinolinecarboxylic acid] | 0.12 µg/mL (≈ 0.251 µM) | 2 µg/mL (≈ 4.18 µM) | 0.12 µg/mL (≈ 0.251 µM) | 0.25 µg/mL (≈ 0.523 µM) | 1 µg/mL (≈ 2.09 µM) | 0.12 µg/mL (≈ 0.251 µM) | 0.06 µg/mL (≈ 0.125 µM)
O=C(O)c1cn(C2CC2)c2cc(N(CC3CCCO3)C(=O)c3cccs3)c(F)cc2c1=O (centres unmarked) [JA 140, 1-cyclopropyl-6-fluoro-4-oxo-7-[(tetrahydro-2-furanylmethyl)(2-thienylcarbonyl)amino]-1,4-dihydro-3-quinolinecarboxylic acid] | 0.06 µg/mL (≈ 0.131 µM) | 1 µg/mL (≈ 2.19 µM) | 0.06 µg/mL (≈ 0.131 µM) | 0.12 µg/mL (≈ 0.263 µM) | 0.5 µg/mL (≈ 1.1 µM) | 0.12 µg/mL (≈ 0.263 µM) | 0.06 µg/mL (≈ 0.131 µM)
O=C(O)c1cn(C2CC2)c2cc(N(CC3CCCO3)c3cncc(Cl)n3)c(F)cc2c1=O (centres unmarked) [JA 141, 7-[(6-chloro-2-pyrazinyl)(tetrahydro-2-furanylmethyl)amino]-1-cyclopropyl-6-fluoro-4-oxo-1,4-dihydro-3-quinolinecarboxylic acid] | 0.12 µg/mL (≈ 0.262 µM) | 2 µg/mL (≈ 4.36 µM) | 0.12 µg/mL (≈ 0.262 µM) | 0.25 µg/mL (≈ 0.545 µM) | 1 µg/mL (≈ 2.18 µM) | 0.12 µg/mL (≈ 0.262 µM) | 0.12 µg/mL (≈ 0.262 µM)
O=C(O)c1cn(C2CC2)c2cc(N(CC3CCCO3)c3cccc(Cl)n3)c(F)cc2c1=O (centres unmarked) [JA 143, 7-[(6-chloro-2-pyridinyl)(tetrahydro-2-furanylmethyl)amino]-1-cyclopropyl-6-fluoro-4-oxo-1,4-dihydro-3-quinolinecarboxylic acid] | 0.12 µg/mL (≈ 0.262 µM) | > 2 µg/mL | 0.12 µg/mL (≈ 0.262 µM) | 0.25 µg/mL (≈ 0.546 µM) | 1 µg/mL (≈ 2.18 µM) | 0.12 µg/mL (≈ 0.262 µM) | 0.12 µg/mL (≈ 0.262 µM)
